Source: publication PMC6834077, “The evolving story of AtzT, a periplasmic binding protein” (Acta Crystallographica. Section D, Structural Biology, 2019)
Several values for one entry are separate records, joined by “and”; a condition that tells them apart may be missing. Equal entries are not always repeated. Where two headings read alike, the source gives them in different places.

Target: AtzT (Pseudomonas sp. (strain ADP), UniProt Q936X6)
Assay: Surface plasmon resonance (SPR) binding to immobilized AtzT, 1:1 steady-state affinity model
[1] = Biacore S200, CM5 chip, 293 K, HBS-P+ buffer with 2%(v/v) DMSO, mean ± standard deviation (n = 3)

Chain of AtzT (Q936X6 27-360 limits assumed): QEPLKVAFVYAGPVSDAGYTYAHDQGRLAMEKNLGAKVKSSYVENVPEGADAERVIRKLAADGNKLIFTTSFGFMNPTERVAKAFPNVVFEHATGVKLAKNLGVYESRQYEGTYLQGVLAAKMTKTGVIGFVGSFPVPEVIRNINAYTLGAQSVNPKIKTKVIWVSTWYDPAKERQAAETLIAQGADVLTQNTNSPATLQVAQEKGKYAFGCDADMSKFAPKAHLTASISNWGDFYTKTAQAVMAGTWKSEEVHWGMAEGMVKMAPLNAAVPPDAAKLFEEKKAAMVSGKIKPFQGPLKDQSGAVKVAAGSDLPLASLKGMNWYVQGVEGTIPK

Structure (SMILES)	Kd [1]	also measured
Nc1nc(N)nc(O)n1 [Ammeline]	0.36 ± 0.02 µM	fold difference in K D between ammeline and ammelide (ammeline vs ammelide): > 250 fold
Nc1nc2c(ncn2[C@@H]2O[C@H](COP(=O)(O)OP(=O)(O)OP(=O)(O)O)[C@@H](O)[C@H]2O)c(=O)[nH]1 [GTP]	> 8000 µM	–
CCC1(CC)C(=O)NC(=O)NC1=O [Barbitone]	> 8000 µM	–
O=C1CC(=O)NC(=O)N1 [Barbaturic acid]	> 8000 µM	–
OB(O)c1ccc(I)cc1 [4-Iodophenylboronic acid]	5000 ± 1000 µM	–
O=C(O)c1c(Br)c(Br)c(C(=O)O)c(Br)c1Br [Tetrabromoterephthalic acid]	> 8000 µM	–
O=c1[nH]c(=O)[nH]c(=O)[nH]1 [Cyanuric acid]	340 ± 30 µM	–
Nc1ncnc2nc[nH]c12 [Adenine]	2.5 ± 0.3 µM	Kd: ~2.5 µM
CCNc1nc(O)nc(NC(C)C)n1 [2-Hydroxyatrazine]	2.2 ± 0.2 µM	fold tighter binding than atrazine (2-hydroxyatrazine vs atrazine): ~700 fold and > 600 fold
O=c1cc[nH]c(=O)[nH]1 [Uracil]	1600 ± 300 µM	–
Cc1c[nH]c(=O)[nH]c1=O [Thymine]	620 ± 40 µM	–
Nc1nc2nc[nH]c2c(=O)[nH]1 [Guanine]	0.11 ± 0.02 µM	Kd: ~0.11 µM; time in which the majority of the guanine dissociates from AtzT (Supplementary Fig. S4): ~20 s
CCNc1nc(Cl)nc(NC(C)C)n1 [Atrazine]	1500 ± 200 µM	Kd: ~1500 µM
Nc1nc(N)nc(N)n1 [Melamine]	> 400 µM	–
Nc1cc[nH]c(=O)n1 [Cytosine]	800 ± 90 µM	–
